pIC50: −log10 of the molar value. Read-outs that look alike come from different tables or passages of the source.
Key:
Type in all cases: cell-based
[1] = system: gangliosides (GM1, GD1a, GD1b, GT1b, GQ1b) of rat cerebral synaptosomes; assay: Ganglioside depletion from synaptosomes, remaining content by capillary electrophoresis; conditions: for pIC50: rat cerebral synaptosomes, 40 min exposure
Protocol: (§1) Adult male Wistar rats purchased from Toxi-Coop Ltd. (Budapest, Hungary) were used in the experiments. Cerebral synaptosomes were prepared according to Modi and co-workers with the following modifications. Animals were decapitated and the brain was removed rapidly. Isotonic sucrose buffer (0.32 M sucrose, 4 mM HEPES-NaOH, pH 7.4) was used to homogenize the cerebrum with a Potter S Homogenizer (B. Braun, Melsungen, Germany) with 15 strokes at 1000 rpm. The homogenate was centrifuged (1500× g, 10 min, 4 °C) and the pellet was resuspended in sucrose buffer and centrifuged with the same parameters again. The two supernatants were combined and centrifuged (20,000× g, 10 min, 4 °C) to pellet the crude synaptosomes. The resulting supernatant was discarded and the pellet was washed again with an equal volume of sucrose buffer and then pelleted by centrifugation (20,000× g, 10 min, 4 °C). Synaptosomes were stored frozen using cryopreservation buffer and the slow freezing method to preserve their physiological state and integrity. Briefly, synaptosome pellets were resuspended in isotonic sucrose buffer containing 10% DMSO (v/v) and 10% FBS (v/v). To slow down the freezing process at −80 °C, synaptosomes were placed in a 3 cm thick-walled polystyrene box with a lid. Synaptosomes were stored at −80 °C until use. Immediately prior to the experiments, synaptosomes were rapidly thawed in a 37 °C water bath and pelleted by centrifugation (20,000× g, 10 min, 4 °C) to remove the cryopreservation buffer. The pellet was resuspended in isotonic HEPES-glucose buffer (10 mM HEPES-NaOH, 130 mM NaCl, 5.4 mM KCl, 1.3 mM CaCl2, 0.9 mM MgCl2, 5.5 mM glucose, pH 7.4) and aliquoted according to the experimental design.
(§2) For all types of experiments, except for the glutamate release measurements, vehicle-treated (control) and CD-treated synaptosomes were incubated in 500 μL HEPES-glucose buffer with or without CDs, respectively, for 40 min at 37 °C. […] After incubation, the synaptosomes were centrifuged (20,000× g, 5 min, 4 °C) and used immediately for further analysis. A slightly different incubation method used in the glutamate release measurements is described in the corresponding section. Across all types of experiments, osmolarities of the CD solutions were adjusted and they were between 290 and 310 mOsm. At least three parallel measurements were carried out.
The major neuronal ganglioside (GM1, GD1a, GD1b, GT1b, GQ1b) content of the rat cerebral synaptosome samples were measured by our previously published validated method. Briefly, after the CD treatments, gangliosides were extracted from 10 mg synaptosomes by liquid–liquid extraction. Ganglioside extracts were evaporated to dryness under a gentle stream of nitrogen (Zymark TurboVap LV, Hopkinton, MA, USA) in a 37 °C water bath. The dry ganglioside extract yielded from 10 mg synaptosomes was resuspended in 60 µL water, and centrifuged (20,000× g, 5 min, 4 °C) to remove the precipitate and the supernatant was analyzed by CE.
Ganglioside analysis was performed on a P/ACE MDQ capillary electrophoresis system (Beckman Coulter Inc., Brea, CA, USA) with UV detection at 200 nm. Uncoated fused silica capillaries with 75 µm internal diameter, […], respectively (Agilent Technologies, Santa Clara, CA, USA), were used. Separation was achieved by applying +25 kV voltage in a separation buffer containing 20 mM RAMEA and 100 mM sodium borate at pH 10.0. Ganglioside depletion in the CD-treated synaptosomes was calculated as the percentage of the ganglioside content of the vehicle-treated synaptosomes.
Data were analyzed by GraphPad Prism 8 (GraphPad Software, La Jolla, CA, USA). Concentration–response curves were constructed by the nonlinear regression method. One-way ANOVA followed by Bonferroni’s post hoc test was used for the data analysis in the case of the glutamate release experiments. […]

[2] = system: cholesterol content of rat cerebral synaptosomes; assay: Cholesterol depletion from synaptosomes, Cholesterol Fluorometric Assay Kit; conditions: for Cholesterol depletion in the tested concentration range: tested concentration range 0.3–100 mM; for pIC50: rat cerebral synaptosomes, 40 min exposure, 37 °C
Protocol: as §1, §2
The cholesterol levels of the rat cerebral synaptosomes were measured with a Cholesterol Fluorometric Assay Kit (Cayman Chemical Company, Ann Arbor, MI, USA) with minor adjustments for the sample preparation. Briefly, after CD treatments, 2 mg of the synaptosomes were extracted with 10 vol chloroform–methanol 2:1 (v/v) to gain a lipid extract. The samples were centrifuged (20,000× g, 5 min, 4 °C) and then the supernatant was evaporated to dryness under a nitrogen stream (Zymark TurboVap LV) in a 37 °C water bath. The extracts were resuspended and diluted in the assay buffer (1.2 mL/mg synaptosome). Further preparation of the assay was according to the manufacturer’s protocol. Fluorescence was measured with a Varioskan LUX multimode microplate reader (Thermo Fisher Scientific, Waltham, MA, USA) at 530/590 nm. Cholesterol depletion in the CD-treated synaptosomes was calculated as the percentage of the cholesterol content of the vehicle-treated synaptosomes.
Data were analyzed by GraphPad Prism 8 (GraphPad Software, La Jolla, CA, USA). Concentration–response curves were constructed by the nonlinear regression method. One-way ANOVA followed by Bonferroni’s post hoc test was used for the data analysis in the case of the glutamate release experiments. All data are presented as means ± SEM of at least three parallel measurements. Differences were considered significant if p < 0.05.

[3] = system: rat cerebral synaptosomes; assay: Basal and 4-aminopyridine-evoked glutamate release from synaptosomes (CE-LIF); conditions: 10 mM DIMEB, 33 mM HPBCD, 26 mM RAMEA, 85 mM HPACD; 40 min exposure; 1 mM 4-AP, 8 min
Protocol: After thawing and centrifugation, the cryopreserved synaptosomes were resuspended in isotonic HEPES-glucose buffer. Synaptosomal suspensions corresponding to 10 mg of synaptosomes were centrifuged to an 8-well strip plate (15 min, 2500× g, 4 °C) and the supernatant was discarded. Vehicle-treated (control) and CD-treated synaptosomes were incubated in 200 μL HEPES-glucose buffer with or without CDs, respectively, for 40 min at 37 °C. […] After incubation, the supernatant was replaced with fresh HEPES-glucose buffer containing 40 µM DL-TBOA (a competitive, non-transportable blocker of excitatory amino acid transporters that inhibits the reuptake of released glutamate) and equilibrated for 2 × 10 min at 37 °C with buffer replacement. After equilibration, the buffer was replaced by fresh HEPES-glucose buffer in the case of unstimulated groups. […] Following stimulation, aliquots were taken from the buffer at 8 min and stored at −20 °C until CE analysis. The glutamate content of the aliquots was analyzed by a capillary electrophoresis-laser induced fluorescence method developed in our laboratory. Briefly, samples were subjected to derivatization with NBD-F (1 mg/mL final concentration) in 20 mM borate buffer, pH 8.5 for 20 min at 65 °C. […] Glutamate release was normalized to the baseline release from the vehicle-treated, unstimulated synaptosomes. Data were analyzed by GraphPad Prism 8 (GraphPad Software, La Jolla, CA, USA). Concentration–response curves were constructed by the nonlinear regression method. One-way ANOVA followed by Bonferroni’s post hoc test was used for the data analysis in the case of the glutamate release experiments. All data are presented as means ± SEM of at least three parallel measurements. Differences were considered significant if p < 0.05.

[4] = total = sum of individual gangliosides, read-out: Total ganglioside depletion IC50

Q: Which “Ganglioside extraction at highest examined concentration” value ([1]; 100 mM) does the source give for “(2-hydroxypropyl)-alpha-cyclodextrin [HPACD]” here?
A: ~ 60%

Q: What about the pIC50 ([1]; read-out: GD1a depletion IC50) of the same compound?
A: 1.14

Q: And the pIC50 ([1]; read-out: GD1b depletion IC50)?
A: 1.04

Q: What about the pIC50 ([1]; read-out: GM1 depletion IC50) of the same compound?
A: 1.06

Q: And the pIC50 ([1]; read-out: GQ1b depletion IC50)?
A: 1.21

Q: What about the pIC50 [1, 4] of the same compound?
A: 1.07

Q: What about the “Cholesterol depletion in the tested concentration range” value [2] of the same compound?
A: without affecting the cholesterol content

Q: And the “4-AP-evoked (stimulated) glutamate release” value (“4-AP-evoked” for short) [3]?
A: not detected

Q: What does the source list for CC(O)COC[C@H]1O[C@@H]2O[C@H]3[C@H](O)[C@@H](O)[C@@H](O[C@H]4[C@H](O)[C@@H](O)[C@@H](O[C@H]5[C@H](O)[C@@H](O)[C@@H](O[C@H]6[C@H](O)[C@@H](O)[C@@H](O[C@H]7[C@H](O)[C@@H](O)[C@@H](O[C@H]8[C@H](O)[C@@H](O)[C@@H](O[C@H]1[C@H](O)[C@H]2O)O[C@@H]8COCC(C)O)O[C@@H]7COCC(C)O)O[C@@H]6COCC(C)O)O[C@@H]5COCC(C)O)O[C@@H]4COCC(C)O)O[C@@H]3COCC(C)O (stereo partly drawn) [HPBCD, (2-hydroxypropyl)-beta-cyclodextrin]?
A: pIC50 ([1]; 40 min, read-out: GD1a depletion IC50): 1.08; pIC50 ([1]; 40 min, read-out: GD1b depletion IC50): 1.06; pIC50 ([1]; 40 min, read-out: GM1 depletion IC50): 1.09; pIC50 ([1]; 40 min, read-out: GQ1b depletion IC50): 1.07; pIC50 ([1]; 40 min, read-out: GT1b depletion IC50): 1.10; pIC50 ([1]; 40 min, total = sum of individual gangliosides, read-out: Total ganglioside depletion IC50): 1.08; Ganglioside loss at 50% cholesterol depleting concentration ([1]; at 50% cholesterol depleting concentration): ~ 5%; pIC50 ([2]; 40 min): 1.47; 4-AP-evoked (stimulated) glutamate release [3]: still evoked glutamate release

Q: COC[C@H]1O[C@@H]2O[C@H]3[C@H](O)[C@@H](OC)[C@@H](O[C@H]4[C@H](O)[C@@H](OC)[C@@H](O[C@H]5[C@H](O)[C@@H](OC)[C@@H](O[C@H]6[C@H](O)[C@@H](OC)[C@@H](O[C@H]7[C@H](O)[C@@H](OC)[C@@H](O[C@H]8[C@H](O)[C@@H](OC)[C@@H](O[C@H]1[C@H](O)[C@H]2OC)O[C@@H]8COC)O[C@@H]7COC)O[C@@H]6COC)O[C@@H]5COC)O[C@@H]4COC)O[C@@H]3COC [DIMEB, heptakis(2,6-di-O-methyl)-beta-cyclodextrin] was tested. Which “Ganglioside extraction at 10 mM” value ([1]; 10 mM) did it give?
A: approximately 50%

Q: What about the “Ganglioside extraction at 30 mM” value ([1]; 30 mM) of the same compound?
A: Nearly total extraction

Q: What about the pIC50 ([1]; read-out: GD1a depletion IC50) of the same compound?
A: 2.01

Q: What about the pIC50 ([1]; read-out: GD1b depletion IC50) of the same compound?
A: 1.84

Q: What about the pIC50 ([1]; read-out: GM1 depletion IC50) of the same compound?
A: 1.82

Q: And the pIC50 ([1]; read-out: GQ1b depletion IC50)?
A: 1.94

Q: And the pIC50 ([1]; read-out: GT1b depletion IC50)?
A: 2.06

Q: What about the pIC50 [1, 4] of the same compound?
A: 1.98

Q: And the “Cholesterol extraction at 10 mM” value ([2]; 10 mM)?
A: approximately 50%

Q: What about the “Cholesterol extraction at 30 mM” value ([2]; 30 mM) of the same compound?
A: Nearly total extraction

Q: And the pIC50 [2]?
A: 2.13

Q: And the “4-AP-evoked” value [3]?
A: not detected

Q: How did the pIC50 ([1]; read-out: GD1a depletion IC50) turn out when “randomly methylated alpha-cyclodextrin [RAMEA]” was run?
A: 1.60

Q: What about the pIC50 ([1]; read-out: GD1b depletion IC50) of the same compound?
A: 1.58

Q: And the pIC50 ([1]; read-out: GM1 depletion IC50)?
A: 1.54

Q: And the pIC50 ([1]; read-out: GQ1b depletion IC50)?
A: 1.52

Q: What about the pIC50 ([1]; read-out: GT1b depletion IC50) of the same compound?
A: 1.62

Q: And the pIC50 [1, 4]?
A: 1.59

Q: What about the “Cholesterol depletion in the tested concentration range” value [2] of the same compound?
A: without affecting the cholesterol content

Q: And the “4-AP-evoked” value [3]?
A: not detected

Source: publication PMC9409351, “Differential Ganglioside and Cholesterol Depletion by Various Cyclodextrin Derivatives and Their Effect on Synaptosomal Glutamate Release” (International Journal of Molecular Sciences, 2022)
